According to patent US20090137411A1, “Methods and biochips for detecting small molecule compounds” (priority 2004, published 2009):

tested on: anti-drug mouse monoclonal antibodies; assay: Biochip competitive immunoassay for prohibited substances in urine; assay type: binding; details: competitive immunoassay on chip

| Molecule | Cutoff value (the 50% inhibitory concentration) |
| --- | --- |
| CC(N)Cc1ccccc1 (stereo not shown) [Amphetamine, amphetamine] | 5.2 µg/L |
| C[C@]12CC[C@H]3[C@@H](CCC4=CC(=O)CC[C@@]43C)[C@@H]1CC[C@@H]2O [Testosterone] | 0.6 µg/L |
| C[C@H]1O[C@@H](O[C@H]2[C@@H](O)C[C@H](O[C@H]3[C@@H](O)C[C@H](O[C@H]4CC[C@@]5(C)[C@H](CC[C@@H]6[C@@H]5C[C@@H](O)[C@]5(C)[C@@H](C7=CC(=O)OC7)CC[C@]65O)C4)O[C@@H]3C)O[C@@H]2C)C[C@H](O)[C@@H]1O [Digoxin, digoxin] | 2.8 µg/L |
| gentamicin | 2.5 µg/L |
| CN[C@@H](C)Cc1ccccc1 [Methamphetamine] | 4.0 µg/L |

tested on: anti-morphine antibodies; assay: Qualitative screening of athlete urines on chip (morphine); assay type: binding, mouse; details: athlete urine samples containing the substance

| Molecule | Cross-reactivity with the anti-morphine antibodies |
| --- | --- |
| CCOC(=O)C1(c2ccccc2)CCN(C)CC1 [pethidine] | Cross-reactivity with the anti-morphine antibodies |
| COc1ccc2c3c1O[C@H]1[C@@H](O)CC[C@H]4[C@@H](C2)N(C)CC[C@@]341 [dihydrocodeine] | Cross-reactivity with the anti-morphine antibodies |
